Measured values as given in article PMC4128571 (Drug testing and analysis, 2014).

Assays:
Format in all cases: biochemical
[1] = target: dopamine transporters (DAT) (Rattus norvegicus, UniProt P23977); details: for DAT/SERT ratio: (EC50 at DAT)^-1/(EC50 at SERT)^-1, higher value indicates greater DAT selectivity; for Efficacy to evoke release at DAT (of maximal release): rat brain synaptosomes
[2] = target: 5-HT transporters (SERT) (Rattus norvegicus, UniProt P31652); details: for Efficacy to evoke release at SERT (of maximal release): rat brain synaptosomes
5-HT transporters (SERT), sequence (P31652 whole entry): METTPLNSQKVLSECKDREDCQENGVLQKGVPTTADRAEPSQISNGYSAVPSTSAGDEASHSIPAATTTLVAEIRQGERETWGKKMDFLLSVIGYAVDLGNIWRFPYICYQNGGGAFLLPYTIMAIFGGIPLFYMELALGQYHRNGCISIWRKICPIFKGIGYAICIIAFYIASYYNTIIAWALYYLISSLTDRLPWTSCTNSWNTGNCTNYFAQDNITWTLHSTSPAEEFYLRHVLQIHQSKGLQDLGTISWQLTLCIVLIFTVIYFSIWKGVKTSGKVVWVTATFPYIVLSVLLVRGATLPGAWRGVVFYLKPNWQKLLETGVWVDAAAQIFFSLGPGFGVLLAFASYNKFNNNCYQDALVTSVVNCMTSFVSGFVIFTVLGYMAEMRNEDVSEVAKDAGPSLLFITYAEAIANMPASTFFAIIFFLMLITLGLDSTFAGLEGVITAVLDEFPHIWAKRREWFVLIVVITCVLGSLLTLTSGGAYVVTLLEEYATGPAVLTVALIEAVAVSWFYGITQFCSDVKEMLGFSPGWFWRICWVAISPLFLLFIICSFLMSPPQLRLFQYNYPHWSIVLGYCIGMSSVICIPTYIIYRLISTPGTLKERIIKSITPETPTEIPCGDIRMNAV

[3] = target: norepinephrine transporters (NET) (Rattus norvegicus, UniProt Q63380); details: rat brain synaptosomes
norepinephrine transporters (NET), sequence (Q63380 1-617): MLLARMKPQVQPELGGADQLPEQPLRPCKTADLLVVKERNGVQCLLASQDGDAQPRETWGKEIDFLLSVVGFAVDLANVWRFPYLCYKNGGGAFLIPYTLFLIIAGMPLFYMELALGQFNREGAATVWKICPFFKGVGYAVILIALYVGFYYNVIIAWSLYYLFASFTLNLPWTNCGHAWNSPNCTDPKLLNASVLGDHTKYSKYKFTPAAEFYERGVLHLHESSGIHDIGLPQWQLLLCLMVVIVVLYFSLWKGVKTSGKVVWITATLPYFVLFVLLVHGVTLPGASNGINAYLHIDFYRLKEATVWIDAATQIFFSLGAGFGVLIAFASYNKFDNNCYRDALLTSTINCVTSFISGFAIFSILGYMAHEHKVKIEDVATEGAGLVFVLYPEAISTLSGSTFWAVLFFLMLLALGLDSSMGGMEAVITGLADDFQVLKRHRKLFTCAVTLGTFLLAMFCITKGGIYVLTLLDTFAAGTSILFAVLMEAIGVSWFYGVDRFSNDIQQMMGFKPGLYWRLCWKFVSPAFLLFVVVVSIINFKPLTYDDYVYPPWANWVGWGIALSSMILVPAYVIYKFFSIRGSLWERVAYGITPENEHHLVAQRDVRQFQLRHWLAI

dopamine transporters (DAT), sequence (P23977 whole entry): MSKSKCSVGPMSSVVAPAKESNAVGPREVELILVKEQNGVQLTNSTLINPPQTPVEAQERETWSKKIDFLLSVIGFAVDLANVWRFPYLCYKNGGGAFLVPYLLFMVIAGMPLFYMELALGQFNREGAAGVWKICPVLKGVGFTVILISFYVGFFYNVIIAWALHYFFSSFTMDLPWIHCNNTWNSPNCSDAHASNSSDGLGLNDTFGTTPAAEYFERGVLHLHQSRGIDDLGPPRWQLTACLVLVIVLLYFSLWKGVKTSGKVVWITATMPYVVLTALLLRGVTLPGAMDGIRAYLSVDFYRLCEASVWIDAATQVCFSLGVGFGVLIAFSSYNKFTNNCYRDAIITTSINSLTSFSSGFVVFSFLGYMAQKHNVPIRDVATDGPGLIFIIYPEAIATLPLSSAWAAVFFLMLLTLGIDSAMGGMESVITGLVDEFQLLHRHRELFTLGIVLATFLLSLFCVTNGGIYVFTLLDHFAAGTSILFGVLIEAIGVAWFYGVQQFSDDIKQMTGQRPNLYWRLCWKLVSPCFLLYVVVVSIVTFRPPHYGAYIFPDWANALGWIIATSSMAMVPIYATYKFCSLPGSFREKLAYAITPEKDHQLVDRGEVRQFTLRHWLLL

Cc1ccc([C@H]2OC(N)=N[C@H]2C)cc1 (racemic) [(±)-cis-4,4'-DMAR, (±)-cis-4-Methyl-5-(4-methylphenyl)-4,5-dihydrooxazol-2-amine]
DAT/SERT ratio [1]: 2
Efficacy to evoke release at DAT (of maximal release) [1]: fully efficacious
Efficacy to evoke release at SERT (of maximal release) [2]: fully efficacious
Efficacy to evoke release at NET (of maximal release) [3]: fully efficacious

C[C@@H]1N=C(N)O[C@@H]1c1ccccc1 (racemic) [(±)-cis-4-MAR, (±)-cis-4-methylaminorex]
DAT/SERT ratio [1]: 31
Efficacy to evoke release at DAT (of maximal release) [1]: fully efficacious
Efficacy to evoke release at SERT (of maximal release) [2]: fully efficacious
Efficacy to evoke release at NET (of maximal release) [3]: fully efficacious

NC1=NCC(c2ccccc2)O1 (stereo not drawn) [Aminorex, 5-phenyl-4,5-dihydrooxazol-2-amine]
EC50 [1]: 9.1 ± 0.9 nM
DAT/SERT ratio [1]: 45
Efficacy to evoke release at DAT (of maximal release) [1]: fully efficacious
EC50 [2]: 414 ± 78 nM
Efficacy to evoke release at SERT (of maximal release) [2]: fully efficacious
Efficacy to evoke release at NET (of maximal release) [3]: fully efficacious

C[C@H](N)Cc1ccccc1 [d-Amphetamine]
Efficacy to evoke release at NET (of maximal release) [3]: fully efficacious
